This is an account of results in patent US20040034003A1, “7-Hydroxy-16alpha-fluoro-5-androsten-17-ones and 7-hydroxy-16alpha-fluoro-5-androstan-17-ones and derivatives thereof” (priority 2002, published 2004).

The test system of this assay is TPA-Induced DNA Synthesis in Mouse Epidermis. Kind of assay: TPA-induced DNA synthesis in mouse epidermis: [3H]thymidine incorporation and epidermal DNA content of a 2x2 cm2 skin section. Type of assay: in vivo. The note with it: Example 4; for μg DNA / corrected cpm / cpm/μg DNA / cpm: individual mouse. On the procedure: Epidermal hypeplasia is determined by measuring the stimulation in [^3H] thymidine incorporation as well as epidermal DNA content of a 2×2 cm^2 section of skin twenty hours after TPA application.
In prior experiments, 16α-fluoro-5-androsten-17-one was administered in escalating doses by the oral subcutaneous, intraperitoneal, and buccal routes of administration, and the effect on TPA-stimulated epidermal [^3H] thymidine incorporation and epidermal DNA content was determined.
In this experiment, the effect of treating mice subcutaneously (s.c.) with suspensions of 7α-hydroxy-16α-flouro-5-androsten-17-one and suspensions of 16aflouro-5-androsten-17-one were investigated.
Variousl6α-flouro-5-androsten-17 one suspensions (Q) were prepared. The vehicle was 95% saline (0.9% NaCl) and 5% Emulphor. For the 5 mg/kg s.c. suspension, 25.3 mg was suspended in 10 mL of Emulphor-saline. The other suspensions were made by diluting the 5 mg/kg suspension. For the 2.5 mg/kg suspension, 1 mL of 5mg/kg s.c. suspension was diluted to a final volume of 2mL, for the 1 m/kg suspension 1 mL of the 5 mg/kg suspension was made to a total of 5 mL, while for the 0.125 mg/kg suspension, 0.5 mL of the 5 mg/kg suspension was made to a final volume of 20 mL. Magnetic stir bars were added to the suspensions which were kept on a magnetic stirrer.
7α-hydroxy-16α-flouro-5-androsten-17-one was prepared as described hereinabove. For the 5 mg/kg s.c. suspension, 16.3 mg was suspended in 6.5 mL of Emulphor-saline. The other suspensions were made by diluting the 5 mg/kg suspension. For the 2.5 mg/kg, 1 mL of 5 mg/kg suspension was diluted to a final volume of 2 mL, for the 1 mg/kg suspension 1 mL of the 5 mg/kg suspension was made to total 5 mL, while for the 0.125 mg/kg suspension, 0.5 mL of the 5 mg/kg suspension was made up to final volume of 20 mL. Magnetic stir bars were added to the suspensions and the suspensions were kept on a magnetic stirrer.
Female CD-1 mice were obtained from Charles River Laboratories, Wilmington, Mass. at 44-46 days of age. The mice were housed two to three per cage in plastic shoebox cages on Alphacel bedding with 12 hours of alternating light and dark in the CAF Animal Facility, 6th floor, Pharmacy Building. The mice had ad libitum access-to Purina 5015 chow and acidified tap water (pH≦2.6). The mice were allowed to acclimate to the facility for one week prior to use in an experiment. Three days after obtaining the mice, the mice were shaved and weighed. Only those mice showing no hair regrowth were used in the experiment.
Four days after the mice were shaved, they were treated as follows:
The mice were sacrificed 20 hours after treatment by an overdose of CO2. Twenty minutes prior to sacrifice, the mice were injected with 60 μCi of [^3H]thymidine (Amersham Batch 297). The mice were treated with a depilatory to remove any residual hair. A 2×2 cm^2 piece of skin was excised, placed in ice water for 30 seconds, then in 55° C. water for 30 seconds, then ice water again for 30 seconds. The epidermis was scrapped off using a scalpel and the scrapings were placed into ice cold 0.4N TCA (trichloroacetic acid). The scrapings were homogenized using a Tekmar Tissumizer (80% power for 30 seconds). The homogenates were centrifuged for 20 minutes at 3,000×g. The precipitates were washed 3× with 0.2N TCA, and 2× with absolute ethanol. The DNA in each sample was hydrolyzed with 0.5N TCA for 30 minuts at 90°. The tubes were centrifuged for 20 minutes at 3000×g. A 0.2 mL aliquot of each hydrolysate was counted in a LKB Rackbeta scintillation counter using Scintiverse II BD as the counting medium. DNA content was determined by the Burton diphenylamine assay.
Various suspensions were prepared of 16α-fluoro-5-androsten-17-one as follows. The vehicle was 95% saline (0.9% NaCl) and 5% Emulphor. For the 5 mg/kg s.c. suspension, 27.8 mg was suspended in 11.4 mL of Emulphor-saline. The other suspensions were made by diluting the 5 mg/kg suspension. […]
For orientation: Incorporation of labelled thymidine or its analogues reports DNA synthesis.

The mark [1] stands for this setting: 0.125 mg/kg s.c. 1 h before topical TPA 2 μg, 20 h, 0.125 mg/kg.
Setting [2] is: 1 mg/kg s.c. 1 h before topical TPA 2 μg, 20 h, 1 mg/kg.
The mark [3] stands for this setting: 2.5 mg/kg s.c. 1 h before topical TPA 2 μg, 20 h, 2.5 mg/kg.
The mark [4] stands for this setting: 5 mg/kg s.c. 1 h before topical TPA 2 μg, 20 h.
Where [5] appears, read: 5 mg/kg s.c. 1 h before topical TPA 2 μg, 20 h, 5 mg/kg.

Molecules are shown by their SMILES. “And” between values parts separate entries of the source, which are not always exact repeats. Identical values can stand only once.

Consider `C[C@]12CCCCC1=C[C@@H](O)[C@@H]1[C@@H]2CC[C@]2(C)C(=O)[C@H](F)C[C@@H]12` [7α-hydroxy-16α-fluoro-5-androsten-17-one, 16α-fluoro-7α-hydroxy-5-androsten-17-one], for which the “μg DNA” value by setting is: (0.125 mg/kg s.c. 1 h before topical TPA 2 μg, 20 h, Burton diphenylamine assay, 0.125 mg/kg) 16.8 µg and 15.4 µg; under setting [2], 14.1 µg and 13.1 µg; under setting [3], 12.0 µg and 11.3 µg; under setting [4], 11.9 µg. Also, the “cpm/μg DNA (group average ±)” value reads like this: (0.125 mg/kg s.c. 1 h before topical TPA 2 μg, 20 h) 335.1 ± 64.4 cpm/μg DNA; (1 mg/kg s.c. 1 h before topical TPA 2 μg, 20 h) 245.5 ± 44.1 cpm/μg DNA; (2.5 mg/kg s.c. 1 h before topical TPA 2 μg, 20 h) 350.2 ± 32.5 cpm/μg DNA; under setting [4], 360.3 ± 9.3 cpm/μg DNA. The corrected cpm reads like this: under setting [1], 6,394.0 cpm and 4,458.0 cpm; under setting [2], 3,021.0 cpm and 3,623.0 cpm; under setting [3], 4,478.0 cpm and 3,698.0 cpm; under setting [5], 4,366.0 cpm and 4,209.0 cpm. The “cpm/μg DNA” value under setting [1] is 380.6 cpm/μg DNA and 289.5 cpm/μg DNA; the “cpm/μg DNA” value under setting [2] is 214.3 cpm/μg DNA and 276.6 cpm/μg DNA; the “cpm/μg DNA” value under setting [3] is 373.2 cpm/μg DNA and 327.3 cpm/μg DNA; the “cpm/μg DNA” value under setting [5] is 366.9 cpm/μg DNA and 353.7 cpm/μg DNA. The cpm is, setting by setting: (0.125 mg/kg s.c. 1 h before topical TPA 2 μg, female CD-1 mice, 20 h after treatment, 0.125 mg/kg) 6,419.0 cpm and 4,483.0 cpm; under setting [2], 3,046.0 cpm and 3,648.0 cpm; under setting [3], 4,503.0 cpm and 3,723.0. cpm; under setting [5], 4,391.0 cpm and 4,234.0 cpm. The “effect on [3H]thymidine incorporation and epidermal DNA content (in words)” value (s.c., dose range 0.125-5 mg/kg) was “inhibited [^3H] thymidine incorporation and epidermal DNA content over the dose range with no apparent nadir or over stimulation”.
